Measurements taken from patent publication EP4600371A1, “CELL-FREE GLYCOSYLATION OF PEPTIDES AND PROTEINS” (ETH Zurich, priority 2024, dated 2025).

Experiments:
TbSTT3B = assay: Kinetic assay with ssOST enzyme: in vitro glycosylation of acceptor peptide, UPLC readout; type: biochemical, Trypanosoma brucei; settings: for completion of the glycosylation reaction: after an hour of incubation at room temperature, TbSTT3B
Description: In vitro glycosylation reactions were performed by mixing 50 nM purified TbSTT3A or 100 nM TbSTT3B protein, 15µM Phy-LLO or Dol20-LLO, 10 mM MnCl2, 150 mM NaCl, 20 mM HEPES pH 7.5, 0.035% DDM, 0.007% CHS and 20 µM of the acceptor peptide (for STT3A: 5CF-GSDANYTYTQ (SEQ ID No 33), for STT3B: 5CF-GSLANYTK (SEQ ID No 34)), […] 1 µL samples were taken at different time points and diluted in 10% ACN, 10 mM phosphate buffer pH 7. Samples were analyzed by reverse-phase chromatography using a UPLC Dionex UltiMate 3000 with an Accucore 150-C18 100 × 2.1 mm 2.6 µm column (Thermo Fisher Scientific)40. Peaks for glycopeptide and peptide were integrated using the Software ChromeleonTM, and the amount of produced glycopeptide was determined for each data point. Turnover rate determination was performed by fitting of the data to linear regression using PRISM software.

TbSTT3A = assay: as above; type: biochemical, Trypanosoma brucei; settings: compared to Dol20-PP-GlcNAc2Man5 as donor; 50 nM TbSTT3A, 15 µM LLO, 20 µM 5CF-GSDANYTYTQ, 30°C; Figure 3A
Description: In vitro glycosylation reactions were performed by mixing 50 nM purified TbSTT3A or 100 nM TbSTT3B protein, 15µM Phy-LLO or Dol20-LLO, 10 mM MnCl2, 150 mM NaCl, 20 mM HEPES pH 7.5, 0.035% DDM, 0.007% CHS and 20 µM of the acceptor peptide (for STT3A: 5CF-GSDANYTYTQ (SEQ ID No 33), for STT3B: 5CF-GSLANYTK (SEQ ID No 34)), and incubating at 30°C. 1 µL samples were taken at different time points and diluted in 10% ACN, 10 mM phosphate buffer pH 7. Samples were analyzed by reverse-phase chromatography using a UPLC Dionex UltiMate 3000 with an Accucore 150-C18 100 × 2.1 mm 2.6 µm column (Thermo Fisher Scientific)40. Peaks for glycopeptide and peptide were integrated using the Software ChromeleonTM, and the amount of produced glycopeptide was determined for each data point. Turnover rate determination was performed by fitting of the data to linear regression using PRISM software.

| Substance | completion of the glycosylation reaction (TbSTT3B) | turnover rate of glycosylation (TbSTT3A) | turnover rate (TbSTT3B; compared to Dol20-PP-GlcNAc2Man9 as substrate, 100 nM TbSTT3B, 15 µM LLO, 20 µM 5CF-GSLANYTK, 30°C, Figure 3B) |
| --- | --- | --- | --- |
| Dol20-PP-GlcNAc2Man9 [reference compound] | went to completion |  |  |
| phy-PP-GlcNAc2Man5 |  | almost identical |  |
| phy-PP-GlcNAc2Man9 | went to completion |  | somewhat slower |
